The record followed here is US20220112187A1, “PYRAZOLOPYRIDINE AMINE COMPOUNDS FOR THE TREATMENT OF AUTOIMMUNE DISEASE” (Hoffmann-La Roche Inc., priority 2018, published 2022).

The experiment concerns the target T1, human TLR9 (Homo sapiens, UniProt Q9NR96).
T1 sequence (Q9NR96 26-1032): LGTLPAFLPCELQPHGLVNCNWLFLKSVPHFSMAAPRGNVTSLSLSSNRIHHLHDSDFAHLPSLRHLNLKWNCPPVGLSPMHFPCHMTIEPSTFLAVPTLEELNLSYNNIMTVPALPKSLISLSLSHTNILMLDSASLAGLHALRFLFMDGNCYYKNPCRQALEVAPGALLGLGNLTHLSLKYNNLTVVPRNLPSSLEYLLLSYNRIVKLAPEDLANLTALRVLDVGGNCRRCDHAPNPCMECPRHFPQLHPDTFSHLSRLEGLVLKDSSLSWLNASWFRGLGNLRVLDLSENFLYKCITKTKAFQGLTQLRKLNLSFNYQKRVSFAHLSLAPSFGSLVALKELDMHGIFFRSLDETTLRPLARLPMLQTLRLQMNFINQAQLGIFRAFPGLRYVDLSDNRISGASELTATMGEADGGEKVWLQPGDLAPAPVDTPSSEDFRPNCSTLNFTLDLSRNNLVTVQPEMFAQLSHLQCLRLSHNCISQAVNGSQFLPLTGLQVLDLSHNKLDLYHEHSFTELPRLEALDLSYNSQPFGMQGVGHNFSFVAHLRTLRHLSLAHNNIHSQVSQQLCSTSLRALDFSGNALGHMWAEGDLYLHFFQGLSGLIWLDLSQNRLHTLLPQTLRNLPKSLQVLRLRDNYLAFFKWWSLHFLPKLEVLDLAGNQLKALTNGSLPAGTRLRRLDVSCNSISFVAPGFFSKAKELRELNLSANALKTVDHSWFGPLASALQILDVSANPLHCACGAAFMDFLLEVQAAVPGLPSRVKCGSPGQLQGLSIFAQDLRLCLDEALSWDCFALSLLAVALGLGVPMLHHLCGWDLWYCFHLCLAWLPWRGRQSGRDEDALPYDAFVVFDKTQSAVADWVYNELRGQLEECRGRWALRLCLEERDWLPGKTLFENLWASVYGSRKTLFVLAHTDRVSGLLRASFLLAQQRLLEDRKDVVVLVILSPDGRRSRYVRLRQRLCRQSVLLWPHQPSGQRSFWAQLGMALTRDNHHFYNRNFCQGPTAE
Kind of experiment: HEK293-Blue-hTLR-9 cells assay (SEAP reporter, ODN2006 stimulation). Type of experiment: cell-based. To be noted: HEK293-Blue-hTLR9 cells, ODN2006 ligand, 20 hrs incubation. An excerpt: A stable HEK293-Blue-hTLR-9 cell line was purchased from InvivoGen (Cat. #: hkb-htlr9, San Diego, Calif., USA). These cells were originally designed for studying the stimulation of human TLR9 by monitoring the activation of NF-κB. A SEAP (secreted embryonic alkaline phosphatase) reporter gene was placed under the control of the IFN-β minimal promoter fused to five NF-κB and AP-1-binding sites. The SEAP was induced by activating NF-κB and AP-1 via stimulating HEK-Blue hTLR9 cells with TLR9 ligands. Therefore the reporter expression was declined by TLR9 antagonist under the stimulation of a ligand, such as ODN2006 (Cat. #: tlr1-2006-1, Invivogen, San Diego, Calif., USA), for incubation of 20 hrs. The cell culture supernatant SEAP reporter activity was determined using QUANTI-Blue™ kit (Cat. #: rep-qb1, Invivogen, San Diego, Calif., USA) at a wavelength of 640 nm, a detection medium that turns purple or blue in the presence of alkaline phosphatase.
HEK293-Blue-hTLR9 cells were incubated at a density of 250,000˜450,000 cells/mL in a volume of 170 μL in a 96-well plate in Dulbecco's Modified Eagle's medium (DMEM) containing 4.5 g/L glucose, 50 U/mL penicillin, […], […], 2 mM L-glutamine, 10% (v/v) heat-inactivated fetal bovine serum with addition of 20 μL test compound in a serial dilution in the presence of final DMSO at 1% and 10 μL of 20 uM ODN2006 in above DMEM, perform incubation under 37° C. in a CO2 incubator for 20 hrs. Then 20 μL of the supernatant from each well was incubated with 180 μL Quanti-blue substrate solution at 37° C. for 2 hrs and the absorbance was read at 620-655 nm using a spectrophotorneter. The signalling pathway that TLR9 activation leads to downstream NF-κB activation has been widely accepted, and therefore similar reporter assay was modified for evaluating TLR9 antagonist.
In turn, `C[C@@H]1CN(c2ccc(C#N)n3nccc23)C[C@H](CN2C[C@H]3CC[C@@H](N(C)C)[C@H]3C2)O1` (racemic) [Example 75, 4-[(2S,6R)-2-[[4-(dimethylamino)-3,3a,4,5,6,6a-hexahydro-1H-cyclopenta[c]pyrrol-2-yl]methyl]-6-methyl-morpholin-4-yl]pyrazolo[1,5-a]pyridine-7-carbonitrile] displayed an IC50 of 290 nM.
The same measure for `C[C@@H]1CN(c2ccc(C#N)n3nccc23)C[C@H](CN2CCC3(CCNC3)C2)O1` (stereo partly drawn) [Example 6, 4-[(2S,6R)-2-(2,7-diazaspiro[4.4]nonan-2-ylmethyl)-6-methyl-morpholin-4-yl]pyrazolo[1,5-a]pyridine-7-carbonitrile]: 31 nM; for `C[C@@H]1CN(c2ccc(C#N)n3nccc23)C[C@H](CN2CCC(N)C(F)(F)C2)O1` (stereo partly drawn) [Example 34, 4-[(2S,6R)-2-[(4-amino-3,3-difluoro-1-piperidyl)methyl]-6-methyl-morpholin-4-yl]pyrazolo[1,5-a]pyridine-7-carbonitrile]: 99000 nM.
For `C[C@@H]1CN(c2ccc(C#N)n3nccc23)C[C@H](CN2CC3CCCNC3C2)O1` (stereo partly drawn) [Example 45, 4-[(2S,6R)-2-(1,2,3,4,4a,5,7,7a-octahydropyrrolo[3,4-b]pyridin-6-ylmethyl)-6-methyl-morpholin-4-yl]pyrazolo[1,5-a]pyridine-7-carbonitrile] the value was 970 nM; for `C[C@@H]1CN(c2ccc(C#N)n3nccc23)C[C@H](CN2CC3CCC(C2)C3N)O1` (stereo partly drawn) [Example 36, 4-[(2S,6R)-2-[(8-amino-3-azabicyclo[3.2.1]octan-3-yl)methyl]-6-methyl-morpholin-4-yl]pyrazolo[1,5-a]pyridine-7-carbonitrile], 520 nM.
Turning to `C[C@@H]1CN(c2ccc(C#N)n3nccc23)C[C@H](CN2CCC(N3CCN(C)CC3)CC2)O1` [Example 1, 4-[(2R,6S)-2-methyl-6-[[4-(4-methylpiperazin-1-yl)-1-piperidyl]methyl]morpholin-4-yl]pyrazolo[1,5-a]pyridine-7-carbonitrile], the IC50 came to 130 nM.
With `C[C@@H]1CN(c2ccc(C#N)n3nccc23)C[C@H](CN2CCC[C@@H]3NCCC32)O1` (stereo partly drawn) [Example 63, 4-[(2R,6S)-2-methyl-6-[[cis-(3aS,7aS)-1,2,3,3a,5,6,7,7a-octahydropyrrolo[3,2-b]pyridin-4-yl]methyl]morpholin-4-yl]pyrazolo[1,5-a]pyridine-7-carbonitrile], the midpoint of inhibition, the IC50, lay at 5900 nM.
The same measure for `C[C@@H]1CN(c2ccc(C#N)n3nccc23)C[C@H](CN2C3CCCC2CC(N)C3)O1` (stereo partly drawn) [Example 66, Exo-4-[(2S,6R)-2-[(3-amino-9-azabicyclo[3.3.1]nonan-9-yl)methyl]-6-methyl-morpholin-4-yl]pyrazolo[1,5-a]pyridine-7-carbonitrile]: 120 nM; for `C[C@@H]1CN(c2ccc(C#N)n3nccc23)C[C@H](CN2CCC3(CC2)CNCCO3)O1` [Example 60, 4-[(2R,6S)-2-methyl-6-(1-oxa-4,9-diazaspiro[5.5]undecan-9-ylmethyl)morpholin-4-yl]pyrazolo[1,5-a]pyridine-7-carbonitrile]: 180 nM.
Molecule `C[C@@H]1CN(c2ccc(C#N)n3nccc23)C[C@H](CN2CC3(CCCNCC3)C2)O1` [Example 46, 4-[(2S,6R)-2-(2,8-diazaspiro[3.6]decan-2-ylmethyl)-6-methyl-morpholin-4-yl]pyrazolo[1,5-a]pyridine-7-carbonitrile] gave a 50% inhibitory concentration (IC50) of 140 nM.
`CC1CN(C[C@H]2CN(c3ccc(C#N)n4nccc34)C[C@@H](C)O2)CCN1` (stereo partly drawn) [Example 28, 4-[(2R,6S)-2-methyl-6-[(3-methylpiperazin-1-yl)methyl]morpholin-4-yl]pyrazolo[1,5-a]pyridine-7-carbonitrile] came in with a half-maximal inhibitory concentration (IC50) of 14000 nM.
In turn, `C[C@@H]1CN(c2ccc(C#N)n3nccc23)C[C@H](CN2C3CCC2CC(N)C3)O1` (stereo partly drawn) [Example 37, 4-[(2S,6R)-2-[(3-amino-8-azabicyclo[3.2.1]octan-8-yl)methyl]-6-methyl-morpholin-4-yl]pyrazolo[1,5-a]pyridine-7-carbonitrile] registered a 50% inhibitory concentration (IC50) of 78 nM.
The same measure for `C[C@@H]1CN(c2ccc(C#N)n3nccc23)C[C@H](CN2CC3(CCNCC3)C2)O1` [Example 24, 4-[(2S,6R)-2-(2,7-diazaspiro[3.5]nonan-2-ylmethyl)-6-methyl-morpholin-4-yl]pyrazolo[1,5-a]pyridine-7-carbonitrile]: 100 nM.
The same measure for `C[C@@H]1CN(c2ccc(C#N)n3nccc23)C[C@H](CN2CCCC3CNCC32)O1` (stereo partly drawn) [Example 61, 4-[(2S,6R)-2-(2,3,4,4a,5,6,7,7a-octahydropyrrolo[3,4-b]pyridin-1-ylmethyl)-6-methyl-morpholin-4-yl]pyrazolo[1,5-a]pyridine-7-carbonitrile]: 6100 nM; for `C[C@@H]1CN(c2ccc(C#N)n3ncc(F)c23)C[C@H](CN2CCCC3(CCNC3)C2)O1` (stereo partly drawn) [Example 68, 3-fluoro-4-[(2S,6R)-2-(2,7-diazaspiro[4.5]decan-7-ylmethyl)-6-methyl-morpholin-4-yl]pyrazolo[1,5-a]pyridine-7-carbonitrile]: 110 nM; for `C[C@@H]1CN(c2ccc(C#N)n3nccc23)C[C@H](CN2CCC23CNC3)O1` [Example 55, 4-[(2S,6R)-2-(1,6-diazaspiro[3.3]heptan-1-ylmethyl)-6-methyl-morpholin-4-yl]pyrazolo[1,5-a]pyridine-7-carbonitrile]: 25000 nM.
`C[C@@H]1CN(c2ccc(C#N)n3nccc23)C[C@H](CN2CCCC3(CCNC3)C2)O1` (stereo partly drawn) [Example 44, 4-[(2S,6R)-2-(2,7-diazaspiro[4.5]decan-7-ylmethyl)-6-methyl-morpholin-4-yl]pyrazolo[1,5-a]pyridine-7-carbonitrile] had a concentration for half-maximal inhibition (IC50) of 110 nM.
The molecule `C[C@@H]1CN(c2ccc(C#N)n3nccc23)C[C@H](CN2CCCC3(CNC3)C2)O1` [Example 33, 4-[(2S,6R)-2-(2,6-diazaspiro[3.5]nonan-6-ylmethyl)-6-methyl-morpholin-4-yl]pyrazolo[1,5-a]pyridine-7-carbonitrile] registered an IC50 of 120 nM.
In turn, `C[C@@H]1CN(c2ccc(C#N)n3nccc23)C[C@H](CN2C3CNCC2COC3)O1` [Example 57, 4-[(2R,6S)-2-methyl-6-(3-oxa-7,9-diazabicyclo[3.3.1]nonan-9-ylmethyl)morpholin-4-yl]pyrazolo[1,5-a]pyridine-7-carbonitrile] registered a concentration for half-maximal inhibition (IC50) of 10000 nM.
The same measure for `C[C@@H]1CN(c2ccc(C#N)n3nccc23)C[C@H](CN2CC3CCNCC32)O1` (stereo partly drawn) [Example 56, 4-[(2S,6R)-2-(3,8-diazabicyclo[4.2.0]octan-8-ylmethyl)-6-methyl-morpholin-4-yl]pyrazolo[1,5-a]pyridine-7-carbonitrile]: 850 nM; for `C[C@@H]1CN(c2ccc(C#N)n3nccc23)C[C@H](CN2CCC3(CN(C)CCO3)C2)O1` (stereo partly drawn) [Example 76, 4-[(2R,6S)-2-methyl-6-[(9-methyl-6-oxa-2,9-diazaspiro[4.5]decan-2-yl)methyl]morpholin-4-yl]pyrazolo[1,5-a]pyridine-7-carbonitrile]: 3500 nM; for `C[C@@H]1CN(c2ccc(C#N)n3nccc23)C[C@H](CN2CCC3(CCN3)CC2)O1` [Example 48, 4-[(2S,6R)-2-(1,7-diazaspiro[3.5]nonan-7-ylmethyl)-6-methyl-morpholin-4-yl]pyrazolo[1,5-a]pyridine-7-carbonitrile]: 250 nM.
